Activity calls are given as the source filed them. No cut-off for these calls is given here.
Assays:
[1] = system: Mus musculus; experiment: (§1) Reno-protective activity against CLP-induced acute kidney injury C57BL/6J mouse model assessed as decrease in Nlrp3 gene expression in kidney at 20 mg/kg, ip administered twice at 30 mins prior to CLP operation and 8 hrs post-CLP operation and measured at 16 hrs post-CLP operation by RNA sequencing analysis; assay type: functional, organism-based; details: time 16.5 hrs
[2] = system: Mus musculus; experiment: as §1, with “tubular injury” for “Nlrp3 gene expression in kidney”, “Hematoxylin-Eosin staining based” for “RNA sequencing”; assay type: functional, organism-based; details: time 16.5 hrs
[3] = target: T1, P2X purinoceptor 7 (Homo sapiens) (UniProt Q99572); experiment: Antagonist activity at human P2X7 receptor expressed in HEK293 cells assessed as inhibition of ATP-induced receptor pore formation at 200 nM by propidium iodide dye uptake based fluorescence analysis; assay type: cell-based; details: filed as antagonist
T1 sequence (whole entry): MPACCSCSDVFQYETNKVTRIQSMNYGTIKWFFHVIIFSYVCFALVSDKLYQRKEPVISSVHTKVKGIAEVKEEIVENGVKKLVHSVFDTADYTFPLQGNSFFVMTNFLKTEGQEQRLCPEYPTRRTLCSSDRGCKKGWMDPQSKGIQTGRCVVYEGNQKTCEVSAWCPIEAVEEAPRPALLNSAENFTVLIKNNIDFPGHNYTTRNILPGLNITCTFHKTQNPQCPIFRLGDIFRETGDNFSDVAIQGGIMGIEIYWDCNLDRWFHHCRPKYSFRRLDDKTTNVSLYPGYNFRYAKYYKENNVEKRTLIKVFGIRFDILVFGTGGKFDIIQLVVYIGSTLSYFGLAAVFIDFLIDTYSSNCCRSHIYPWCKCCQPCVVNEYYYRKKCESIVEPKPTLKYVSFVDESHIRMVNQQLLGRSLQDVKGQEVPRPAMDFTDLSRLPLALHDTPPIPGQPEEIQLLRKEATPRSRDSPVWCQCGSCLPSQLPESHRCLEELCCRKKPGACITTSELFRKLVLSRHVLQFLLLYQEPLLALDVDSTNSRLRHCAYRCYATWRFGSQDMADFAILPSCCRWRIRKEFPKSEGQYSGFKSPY

[4] = Ratio of MTD in ip dosed C57BL/6J mouse to MED for reno-protective activity against ip dosed LPS-induced acute kidney injury C57BL/6J mouse model; assay type: ADME, organism-based; details: in vivo
[5] = target: T2, Cytochrome P450 1A2 (Homo sapiens, UniProt P05177); experiment: Inhibition of CYP1A2 in human liver microsomes using phenacetin as substrate upto 100 uM incubated for 10 mins in presence of NADPH by LC-MS/MS analysis; assay type: ADME, Microsome
T2 sequence (P05177 whole entry): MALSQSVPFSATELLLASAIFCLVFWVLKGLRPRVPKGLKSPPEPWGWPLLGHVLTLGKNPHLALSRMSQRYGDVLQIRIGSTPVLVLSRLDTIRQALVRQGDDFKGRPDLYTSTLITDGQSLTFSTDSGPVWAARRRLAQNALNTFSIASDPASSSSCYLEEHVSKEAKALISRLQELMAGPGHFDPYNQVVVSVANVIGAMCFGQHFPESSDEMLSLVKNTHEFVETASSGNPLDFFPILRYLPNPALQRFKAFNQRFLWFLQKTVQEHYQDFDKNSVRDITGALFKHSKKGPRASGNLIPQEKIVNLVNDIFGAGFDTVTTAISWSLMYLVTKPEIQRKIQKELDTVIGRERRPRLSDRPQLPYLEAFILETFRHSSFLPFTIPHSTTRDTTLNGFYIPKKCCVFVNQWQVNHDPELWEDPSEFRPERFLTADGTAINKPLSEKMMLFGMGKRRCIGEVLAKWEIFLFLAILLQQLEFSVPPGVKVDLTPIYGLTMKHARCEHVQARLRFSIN

[6] = Toxicity in C57BL/6J mouse assessed as pathological changes in testes at 20 mg/kg, ip administered twice at 0 hrs and 8 hrs and measured after 16 hrs by Hematoxylin-Eosin staining based analysis; assay type: organism-based; details: in vivo
[7] = target: Cytochrome P450 2E1 (Homo sapiens, UniProt P05181); experiment: Inhibition of CYP2E1 in human liver microsomes using cholorzoxazone-as substrate upto 100 uM incubated for 10 mins in presence of NADPH by LC-MS/MS analysis; assay type: ADME, Microsome
[8] = system: Mus musculus; experiment: Reno-protective activity against CLP-induced acute kidney injury C57BL/6J mouse model assessed as decrease in KIM1 mRNA expression in kidney at 20 mg/kg, ip administered twice at 30 mins prior to CLP operation and 8 hrs post-CLP operation and measured at 16 hrs post-CLP operation by RT-qPCR analysis; assay type: functional, organism-based; details: time 16.5 hrs
[9] = Half life in BALB/c mouse at 10 mg/kg, po measured for 24 hrs by LC-MS/MS analysis; assay type: ADME, organism-based; details: in vivo
[10] = system: Mus musculus; experiment: Reno-protective activity against CLP-induced acute kidney injury C57BL/6J mouse model assessed as decrease in serum […] level at 20 mg/kg, ip administered twice at 30 mins prior to CLP operation and 8 hrs post-CLP operation and measured at 16 hrs post-CLP operation; assay type: functional, organism-based; details: time 16.5 hrs
[11] = system: Mus musculus; experiment: Reno-protective activity against LPS-induced acute kidney injury C57BL/6J mouse model assessed as decrease in BUN level at 5 to 20 mg/kg, ip administered twice at 30 mins prior to LPS challenge and 8 hrs post-LPS challenge and measured at 16 hrs post-LPS challenge; assay type: functional, organism-based; details: dose 5-20 mg/kg, time 16.5 hrs
[12] = Toxicity in ip dosed C57BL/6J mouse assessed as maximum tolerated dose and measured for 14 days; assay type: organism-based; details: in vivo, time 14 day
[13] = AUC(0 to t) in BALB/c mouse at 10 mg/kg, ip measured for 24 hrs by LC-MS/MS analysis; assay type: ADME, organism-based; parameters: dose 10 mg/kg, time 24 hrs, route ip; details: in vivo
[14] = system: Mus musculus; experiment: as §1, with “Il17” for “Nlrp3”; assay type: functional, organism-based; details: time 16.5 hrs
[15] = Half life in BALB/c mouse at 10 mg/kg, ip measured for 24 hrs by LC-MS/MS analysis; assay type: ADME, organism-based; details: in vivo
[16] = system: Mus musculus; experiment: Reno-protective activity against CLP-induced acute kidney injury C57BL/6J mouse model assessed as decrease in BUN level at 20 mg/kg, ip administered twice at 30 mins prior to CLP operation and 8 hrs post-CLP operation and measured at 16 hrs post-CLP operation; assay type: functional, organism-based; details: time 16.5 hrs
[17] = Intrinsic clearance in mouse liver microsomes; assay type: ADME, Microsome; details: read-out: CLH

Chain of Cytochrome P450 2E1 (P05181 whole entry): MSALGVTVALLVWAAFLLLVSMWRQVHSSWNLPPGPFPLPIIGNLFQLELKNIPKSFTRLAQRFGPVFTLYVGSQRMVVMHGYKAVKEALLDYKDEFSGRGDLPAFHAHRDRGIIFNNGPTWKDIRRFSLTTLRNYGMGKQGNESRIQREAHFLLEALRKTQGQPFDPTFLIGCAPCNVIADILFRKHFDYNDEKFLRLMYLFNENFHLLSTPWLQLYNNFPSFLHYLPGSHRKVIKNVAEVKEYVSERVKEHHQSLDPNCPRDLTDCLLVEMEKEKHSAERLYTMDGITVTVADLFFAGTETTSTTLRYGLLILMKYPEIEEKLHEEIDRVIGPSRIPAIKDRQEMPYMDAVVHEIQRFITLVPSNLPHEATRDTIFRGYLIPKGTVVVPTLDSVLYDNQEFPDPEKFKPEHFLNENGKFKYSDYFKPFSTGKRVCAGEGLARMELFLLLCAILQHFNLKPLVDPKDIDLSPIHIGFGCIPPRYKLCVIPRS

CS(=O)(=O)c1ccc(-c2nc(C(=O)NCc3cn(-c4cc(Br)ccn4)nn3)cs2)cc1
Activity [1]: Active | Activity [2]: Active | inhibition [3]: 92% | selectivity ratio [4]: 80 | inhibition (INH) [5]: Not Active | Activity [6]: Non-Toxic | inhibition (INH) [7]: Not Active | Activity [8]: Active | half-life [9]: 115 min | Activity [10]: Active | Activity [11]: Dose-Dependent Effect | MTD at 336 h [12]: 400 mg/kg | AUC(0-t) at 24 h [13]: 11900 ng·h/mL | Activity [14]: Active | half-life [15]: 367 min | Activity [16]: Active | CLint scaled [17]: < 12 mL/min/kg
